The results in this text go back to patent US8338473B2, “Derivatives of psammaplin A, a method for their synthesis and their uses for the prevention or treatment of cancer” (Centre National de la Recherche Scientifique, priority 2007, dated 2012).

For test [1], the system named is p53. The test is described as follows: p53 acetylation in MCF7 cells (Western blot). To be noted: MCF7, 6 hrs, co-treatment with Etoposide 25 μM. The format is cell-based, human. How it is done: FIG. 13B: western blot of MCF7 cells treated with etoposide alone or in presence of sirtinol (a known SIRT2 inhibitor) and with uvi5008 concentrations of 50 μM and 5 μM.
MCF7 cells (human breast cancer cells) have been growth following standard procedure and have been treated for 6 hrs with the indicated compounds in presence of 25 μM Etoposide. Total protein extracts have been run on SDS gel and blotted. Western Blot has been carried out by using the anti p53 ac382 (Abcam) following standard procedures. ERKs (Santa Cruz) have been used for equal loading control.
On the technique in general: A western blot detects proteins with antibodies after separation by electrophoresis.

Test [2] relates to histone H3. Nature of the test: Histone H3 acetylation and K9 H3 methylation levels in U937 cells. The format is cell-based, human. To be noted: U937, 6 and 16 hrs. As for the experimental part: FIG. 1: a) Cell cycle analysis of U937 cells treated for 30 hrs with the indicated compounds used at 1 and 5 μM; b) Caspase 3 apoptotic assay of the indicated compounds after 24 hrs of treatment in the U937 cells; c) Tubulin acetylation and p21 expression levels at 6 and 16 hrs after treatment with the indicated compounds; total tubulin expression levels are used for equal loading; d) Histone H3 acetylation and K9 H3 methylation expression levels at 6 and 16 hrs after treatment with the indicated compounds; total tubulin expression levels are used for equal loading; e) K9, K14, K18 histone H3 acetylation expression levels at 6 and 16 hrs after treatment with the indicated compounds; total ERKs expression levels are used for equal loading; f) HDAC1 enzymatic assay: IP-HDAC1 is incubated with the indicated inhibitors for 24 Hrs; activity is measured as ^3H-acetyl release; g) HDAC4 enzymatic assay: IP-HDAC4 is incubated with the indicated inhibitors for 24 hrs; activity is measured as ^3H-acetyl release.
For the determination of p21^WAF1/CIP1 and p16^INK4 100 μg of total protein extracts were separated on a 15% polyacrylammide gels and blotted. Western blots were shown for p21 (Transduction Laboratories, dilution 1:500), p16 (Santa Cruz) and total ERKs (Santa Cruz) were used to normalise for equal loading. For alpha-tubulin acetylation 25 μg of total protein extracts were separated on a 10% polyacrylamide gels and blotted. Western blots were shown for acetylated alpha-tubulin (Sigma, dilution 1:500) and total ERKs (Santa Cruz) or total tubulin (Sigma) were used to normalise for equal loading.

`O=C(NCCSSCCNC(=O)C(Cc1c[nH]c2ccc(Br)cc12)=NO)C(Cc1c[nH]c2ccc(Br)cc12)=NO` [UVI5008]: in test [1], the “p53 acetylation levels (readout of SIRT inhibition)” value is recorded as “hyperacetylation”. Besides, in test [2], the “H3K9, H3K14 and H3K18 acetylations” value was “all increased”; the “global histone H3 acetylation” value is listed as “dramatically enhanced”; the “methylation of H3K9” value is listed as “decreased”.
